This data set concerns rodent carcinogenicity bioassays, tumor incidence. The experiment in a line: CCRIS carcinogenicity studies. The method in brief:
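Archive of carcinogenicity, mutagenicity, tumor promotion and tumor inhibition results drawn from journals, NCI reports and other sources, expert-reviewed; covers 1985-2011 and is no longer updated.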

The source made the active and inactive calls. The rule behind the calls is not given here.

The results in this text go back to PubChem BioAssay AID1259411 (Chemical Carcinogenesis Research Information System (CCRIS), 2018).

On to `CCOc1ccc(NC(C)=O)cc1N`, for which the carcinogen call runs as follows: (Species: MOUSE, Strain/Sex: B6C3F1/FEMALE, Route: ORAL, Dose: 0, 0.4, 0.8% OF DIET, Dose: 0, 0.4, 0.8% OF DIET) “inactive; negative”; (Species: MOUSE, Strain/Sex: B6C3F1/MALE, Route: ORAL, Dose: 0, 0.4, 0.8% OF DIET, Dose: 0, 0.4, 0.8% OF DIET, Tumor Site: Type of Lesion: THYROID GLAND: FOLLICULAR CELL ADENOMA, CARCINOMA, ADENOCARCINOMA, ADENOMA, LUNG: ALVEOLAR/BRONCHIOLAR ADENOMA, CARCINOM) “active; positive”; (Species: RAT, Strain/Sex: F344/FEMALE, Route: ORAL, Dose: 0, 0.4, 1.5% OF DIET, Dose: 0, 0.4, 1.5% OF DIET) “inactive; negative”; (Species: RAT, Strain/Sex: F344/MALE, Route: ORAL, Dose: 0, 0.4, 1.5% OF DIET, Dose: 0, 0.4, 1.5% OF DIET) “inactive; negative”.

As for `CNNC` (tested in a mixture with another compound), the carcinogen call (Species: RAT, Strain/Sex: CD-1/MALE, Route: INTRAPERITONEAL, Dose: 0, 10 MG/KG/WK FOR 4 WK (STUDY DURATION: 1 YEAR), Tumor Site: Type of Lesion: PANCREAS: ADENOCARCINOMA, COLON: ADENOCARCINOMA) is “active; positive”.

As for `CC(=O)OC1CC(C)OC(C)O1` (configuration not stated), the carcinogen call is, setting by setting: (Species: MOUSE, Strain/Sex: B6C3F1/FEMALE, Route: GAVAGE, Dose: 0, 250, 500 MG/KG IN CORN OIL 5 D/WK FOR 103 WK (STUDY DURATION: 105 WK), Dose: 0, 250, 500 MG/KG IN CORN OIL 5 D/WK FOR 103 WK (STUDY DURATION: 105 WK)) “inactive; negative”; (Species: MOUSE, Strain/Sex: B6C3F1/MALE, Route: GAVAGE, Dose: 0, 250, 500 MG/KG IN CORN OIL 5 D/WK FOR 103 WK (STUDY DURATION: 105 WK), Dose: 0, 250, 500 MG/KG IN CORN OIL 5 D/WK FOR 103 WK (STUDY DURATION: 105 WK), Tumor Site: Type of Lesion: FORESTOMACH: SQUAMOUS PAPILLOMA OR SQUAMOUS CELL CARCINOMA) “equivocal”; (Species: RAT, Route: ORAL, Tumor Site: Type of Lesion: LIVER) “active; positive”; (Species: RAT, Strain/Sex: F344/FEMALE, Route: GAVAGE, Dose: 0, 125, 250 MG/KG IN CORN OIL 5 D/WK FOR 103 WK (STUDY DURATION: 105 WK), Dose: 0, 125, 250 MG/KG IN CORN OIL 5 D/WK FOR 103 WK (STUDY DURATION: 105 WK)) “inactive; negative”; (Species: RAT, Strain/Sex: F344/MALE, Route: GAVAGE, Dose: 0, 62.5, 125 MG/KG IN CORN OIL 5 D/WK FOR 103 WK (STUDY DURATION: 105 WK), Dose: 0, 62.5, 125 MG/KG IN CORN OIL 5 D/WK FOR 103 WK (STUDY DURATION: 105 WK)) “inactive; negative”.

For `c1ccc2c(c1)cc1ccc3cc4ccccc4c4ccc2c1c34`, the carcinogen call runs as follows: (Species: HAMSTER, Route: SUBCUTANEOUS, Tumor Site: Type of Lesion: INJECTION SITE) “active; positive”; (Species: MOUSE, Route: DERMAL, Tumor Site: Type of Lesion: INTEGUMENTARY SYSTEM (SKIN)) “active; positive”; (Species: MOUSE, Route: SUBCUTANEOUS, Tumor Site: Type of Lesion: INJECTION SITE) “active; positive”.

As to `Cc1c(N)nc(C)c2c1[nH]c1ccccc12`, the carcinogen call runs as follows: (Species: MOUSE, Strain/Sex: CDF1/FEMALE, Route: ORAL, Dose: 0, 200 PPM IN DIET FOR 621 D, Tumor Site: Type of Lesion: LIVER: HEPATOCELLULAR CARCINOMA) “active; positive”; (Species: MOUSE, Strain/Sex: DDY/FEMALE, Route: BLADDER IMPLANT, Dose: 0, 5% IN PARAFFIN PELLET (STUDY DURATION: 40 WK), Tumor Site: Type of Lesion: URINARY BLADDER: TRANSITIONAL CELL CARCINOMA) “active; positive”; (Species: RAT, Strain/Sex: F344/FEMALE, Route: ORAL, Dose: 0, 0.02% IN PELLET DIET FOR DURATION OF STUDY (STUDY DURATION: 365 D), Tumor Site: Type of Lesion: LIVER: TRABECULAR CARCINOMA, ADENOCARCINOMA) “active; positive”; (Species: RAT, Strain/Sex: F344/MALE, Route: ORAL, Dose: 0, 0.015% IN PELLET DIET FOR DURATION OF STUDY (STUDY DURATION: 365 D), Tumor Site: Type of Lesion: LIVER: TRABECULAR CARCINOMA, ADENOCARCINOMA) “active; positive”.

Regarding `CCCN(COC(C)=O)N=O`, the carcinogen call (Species: RAT, Strain/Sex: F344/FEMALE, Route: SUBCUTANEOUS, Dose: 6.1 MG/KG 1/WK FOR 10 WK, Tumor Site: Type of Lesion: INJECTION SITE: MALIGNANT FIBROUS HISTIOCYTOMA, LUNG: ADENOMA, ADENOCARCINOMA OR SQUAMOUS CELL CARCINOMA, THYROID GLAND:, Tumor Site: Type of Lesion: INJECTION SITE: MALIGNANT FIBROUS HISTIOCYTOMA, LUNG: ADENOMA, ADENOCARCINOMA OR SQUAMOUS CELL CARCINOMA, THYROID GLAND:) is “active; positive” and the carcinogen call (Species: RAT, Strain/Sex: F344/MALE, Route: SUBCUTANEOUS, Dose: 6.1 MG/KG 1/WK FOR 10 WK, Tumor Site: Type of Lesion: INJECTION SITE: MALIGNANT FIBROUS HISTIOCYTOMA, LUNG: ADENOMA, ADENOCARCINOMA OR SQUAMOUS CELL CARCINOMA) is “active; positive”.

In the case of `Nc1ccc2c(n1)[nH]c1ccccc12`, the carcinogen call was “active; positive” (Species: MOUSE, Strain/Sex: CDF1/FEMALE, Route: ORAL, Dose: 0, 0.08% IN DIET FOR UP TO 685 D (STUDY DURATION: 685 D), Tumor Site: Type of Lesion: LIVER: HEPATOCELLULAR ADENOMA OR CARCINOMA, BLOOD VESSELS: HEMANGIOENDOTHELIAL SARCOMA); “active; positive” (Species: MOUSE, Strain/Sex: CDF1/MALE, Route: ORAL, Dose: 0, 0.08% IN DIET FOR UP TO 685 D (STUDY DURATION: 685 D), Tumor Site: Type of Lesion: LIVER: HEPATOCELLULAR ADENOMA OR CARCINOMA, BLOOD VESSELS: HEMANGIOENDOTHELIOMA OR HEMANGIOENDOTHELIAL SARCOMA); “inactive; negative” (Species: RAT, Strain/Sex: SPRAGUE-DAWLEY/FEMALE, Route: ORAL, Dose: 0, 75 MG/KG IN 5 ML CORN OIL 1/D ON DAYS 43-47 AND 50-54 OF AGE ADMINISTERED TO RATS PLACED ON HIGH-FAT (23.5% CORN OIL)).

`O=[N+]([O-])c1ccc(Cl)cc1`: the carcinogen call (Species: MOUSE, Strain/Sex: CD-1/MALE,FEMALE, Route: ORAL, Tumor Site: Type of Lesion: BLOOD VESSELS) was “active; positive”.

For the compound `C/C=C/C=O`, the carcinogen call runs as follows: (Species: MOUSE, Strain/Sex: B6C3F1/FEMALE, Route: INTRAPERITONEAL, Dose: 0, 1500 NMOL TOTAL DOSE, 1/3 AND 2/3 OF THE TOTAL DOSE ADMINISTERED AT 8 AND 15 DAYS OF AGE RESPECTIVELY, ANIMALS TERMIN) “inactive; negative”; (Species: MOUSE, Strain/Sex: B6C3F1/FEMALE, Route: INTRAPERITONEAL, Dose: 0, 3000 NMOL TOTAL DOSE, 1/3 AND 2/3 OF THE TOTAL DOSE ADMINISTERED AT 8 AND 15 DAYS OF AGE RESPECTIVELY, ANIMALS TERMIN) “inactive; negative”; (Species: MOUSE, Strain/Sex: B6C3F1/MALE, Route: INTRAPERITONEAL, Dose: 0, 1500 NMOL TOTAL DOSE, 1/3 AND 2/3 OF THE TOTAL DOSE ADMINISTERED AT 8 AND 15 DAYS OF AGE RESPECTIVELY, ANIMALS TERMIN) “inactive; negative”; (Species: MOUSE, Strain/Sex: B6C3F1/MALE, Route: INTRAPERITONEAL, Dose: 0, 3000 NMOL TOTAL DOSE, 1/3 AND 2/3 OF THE TOTAL DOSE ADMINISTERED AT 8 AND 15 DAYS OF AGE RESPECTIVELY, ANIMALS TERMIN) “inactive; negative”.

For `CCSCC[C@H](N)C(=O)O`, the carcinogen call is “active; positive” (Species: RAT, Strain/Sex: SPRAGUE-DAWLEY/MALE,FEMALE, Route: ORAL, Dose: 0.25% IN DIET FOR 38 WK (AVE), Tumor Site: Type of Lesion: LIVER: CARCINOMA); “active; positive” (Species: RAT, Strain/Sex: SPRAGUE-DAWLEY/MALE, Route: ORAL, Dose: 0, 0.05% IN CHOLINE-FREE DIET FOR 12 MO (STUDY DURATION: 12 MO), Tumor Site: Type of Lesion: LIVER: HEPATOCELLULAR CARCINOMA); “inactive; negative” (Species: RAT, Strain/Sex: SPRAGUE-DAWLEY/MALE, Route: ORAL, Dose: 0, 0.1% IN CHOLINE-FREE DIET FOR 12 MO (STUDY DURATION: 12 MO)); “active; positive” (Species: RAT, Strain/Sex: STRAIN-CD/MALE, Route: ORAL, Dose: 0.2% IN NONTOXIC PEANUT MEAL DIET FOR 380 D, Tumor Site: Type of Lesion: LIVER).

`C[C@H]1C[C@]2(C)[C@@H](O)CC[C@H]2[C@@H]2CCc3cc(O)ccc3[C@H]21`: the carcinogen call (Species: HAMSTER, Strain/Sex: SYRIAN/MALE, Route: SUBCUTANEOUS IMPLANT, Dose: 0, 20 MG IN PELLETS IMPLANTED EVERY 2.5 MO FOR 9 MO (STUDY DURATION: 9 MO)) was “inactive; negative”.
